Assay results published in the NIST ThermoML archive (doi:10.1016/j.jct.2013.08.022).
Values joined by “and” are separate entries in the source; they are usually repeats but may differ in a detail not shown here. Identical values can stand only once. ± gives the expanded uncertainty stated by the source.

Conditions: Crystal, Closed cell (Static) method

## c1ccccc1 [benzene]
233.2 K
  vapor or sublimation pressure: 0.09891 ± 0.002 kPa and 0.09902 ± 0.002 kPa and 0.09885 ± 0.002 kPa
235.7 K
  vapor or sublimation pressure: 0.1277 ± 0.0025 kPa
238.21 K
  vapor or sublimation pressure: 0.1641 ± 0.0027 kPa
240.7 K
  vapor or sublimation pressure: 0.2093 ± 0.0033 kPa and 0.2094 ± 0.0033 kPa and 0.2095 ± 0.0033 kPa
243.2 K
  vapor or sublimation pressure: 0.2655 ± 0.004 kPa and 0.2656 ± 0.004 kPa
245.68 K
  vapor or sublimation pressure: 0.3351 ± 0.0049 kPa and 0.3352 ± 0.0049 kPa and 0.335 ± 0.0049 kPa
248.18 K
  vapor or sublimation pressure: 0.4206 ± 0.0059 kPa and 0.4205 ± 0.0059 kPa
250.68 K
  vapor or sublimation pressure: 0.5253 ± 0.0073 kPa and 0.5257 ± 0.0073 kPa
253.17 K
  vapor or sublimation pressure: 0.6533 ± 0.0089 kPa and 0.6532 ± 0.0089 kPa and 0.6543 ± 0.0089 kPa
255.67 K
  vapor or sublimation pressure: 0.8095 ± 0.011 kPa and 0.8096 ± 0.011 kPa and 0.8092 ± 0.011 kPa
258.16 K
  vapor or sublimation pressure: 0.9997 ± 0.013 kPa and 0.9995 ± 0.013 kPa and 0.9994 ± 0.013 kPa
260.68 K
  vapor or sublimation pressure: 1.231 ± 0.016 kPa and 1.229 ± 0.016 kPa
